Here are results for three compounds from US9938232B2, “LED photoinitiators” (SUN CHEMICAL CORPORATION, priority 2014, dated 2018).

A short description of data set [1]: Solubility in water and organic solvents (observation). The class given is physicochemical. How it is done: After cooling, the pH of the solution was adjusted to 4 with about 100 ml of a 50 wt % aqueous solution of acetic acid to precipitate a yellow solid. The solid was collected by filtration and dissolved in a saturated aqueous solution (100 ml) of sodium carbonate. Insoluble material was removed by filtration and the pH of the filtrate was adjusted to 5 to 6 with aqueous acetic acid to precipitate a yellow solid. The solid was collected by filtration and re-crystallized from 130 ml ethanol.

A short description of data set [2]: UV-spectra measurement. The class given is physicochemical. How it is done:
Spectra were acquired using a Unicam UV-2 UV/VIS spectro-photometer. All absorption spectra were obtained using 1 cm cuvettes, scanning within the 200-800 nm range. Solutions were prepared in a 100 cm^3 volumetric flask, and, if required, subsequently diluted so that a maximum absorbance of less than 2 was obtained. From the absorption the molar extinction coefficient e was calculated in liter*mol^−1*cm^−1.

Data set [3] in a line: Solubility in multifunctional acrylates. It counts as physicochemical. As to conditions: 10 and 20 weight % in PPTTA, TMPTA and EO-TMPTA, stirred 10 minutes at 45° C. How it is done: • Mn: 1050 Da, Mw 1360 Da • IR: v [cm-1]: 3318, 2930, 2861, 1716 (s), 1641, 1590 (vs), 1525, 1450, 1364, 1284, 1228, 1146, 1068, 927, 826, 770 Solubility: • The product as obtained according to Example 10 was added to different multifunctional acrylates to check solubility. Propoxylated pentaerythritol tetraacrylate (SR 494 LM, Sartomer company) (PPTTA), trimethylol propane triacrylate (SR 351M, Sartomer company) (TMPTA) and ethoxylated trimethylol propane triacrylate (Ebecryl LEO 10501, Allnex company) (EO-TMPTA) were used. The compound of example 10 was added in amounts of 10 and 20 weight % to each of the acrylates and stirred for 10 minutes at 45° C. In all cases (even at 20 weight %), clear, intense yellow, transparent mixtures were obtained.

SMILES strings stand for the structures.

In general, melting point refers to the temperature, or range, at which the solid turns liquid. The compound `CN(C)c1ccc(C(=O)c2ccc(N(C)C)cc2C(=O)O)cc1` [Example 2, 5-(dimethylamino)-2-[4-(dimethylamino)benzoyl]-benzoic acid] displayed a melting point of 269 to 272 °C. Also, the “Solubility in DMSO” value in data set [1] (DMSO) is given as “soluble in DMSO”.

Turning to `CN(C)c1ccc(C(=O)c2ccc(N(C)C)cc2C(=O)[O-])cc1.[K+]` [Example 6, 5-(dimethylamino)-2-[4-(dimethylamino)benzoyl]-benzoic acid potassium salt], in data set [2] (in H2O), the “UV-spectroscopy: λmax (H2O)” value turned out to be 365 nm. For the same compound, the Molar extinction coefficient in data set [2] (in water) worked out at 36192 L/mol/cm. The “Solubility in methylene chloride” value in data set [1] (methylene chloride) is “limited solubility in methylene chloride”. Moreover, the Solubility in water result in data set [1] (water) is “good solubility in water”.

As to `CCCCOCC(COC(=O)c1cc(N(C)C)ccc1C(=O)c1ccc(N(C)C)cc1)OC(=O)NCCCCCCNC(=O)OC(COCCCC)COC(=O)c1cc(N(C)C)ccc1C(=O)c1ccc(N(C)C)cc1` (stereo not shown) [Example 10], the “Solubility in multifunctional acrylates” value in data set [3] was “very good solubility”.
